Reference: patent US10968186B2, “Ascochlorin derivative and use thereof as AMPK activator” (priority 2016, dated 2021)
Converted amounts (≈) assume the structure as drawn. Like-named read-outs stand apart in the source and are kept apart here.

Key:
[1] = Solubility in pH4.0 and pH7.4 phosphate buffer solution; format: physicochemical; conditions: phosphate buffer (PBS), aqueous buffer, kinetic from dmso stock, 2 hr incubation, 25° C.
Protocol: 1) Preparation of Stock Solutions
Diclofenac was used as positive control in the assay.
2) Procedures for Solubility Determination
This study was performed in duplicate. […] The filtered samples were diluted with methanol.
3) Samples Analyzed by LC-MS/MS

[2] = Stability against human liver microsomes; format: in vitro ADME; conditions: 2 μM compound
Protocol: (§1) Determination of Stability Against Mouse and Human Mirosomes
(§2) Pooled human liver microsomes (Cat. 452161; Lot. 23418) were purchased from Corning and pooled male mouse liver microsomes (Cat. M1000; Lot. 1210302) were purchased from Xenotech. Microsomes were stored at −80° C. prior to use. 40 μL of ultra-pure H2O was used instead of NADPH solution in the negative control. The negative control was used to exclude the misleading factor that was resulted from instability of chemical itself. Samples with NADPH were prepared in duplicate. Negative controls were prepared in singlet.
(§3) The reaction was started with the addition of 4 μL of 200 μM compound solution to each master solution to get the final concentration of 2 μM. Verapamil was used as positive control in the assay. Aliquots of 50 μL were taken from the reaction solution at 0, 15, 30, 45 and 60 min. The reaction was stopped by addition of 4 volumes of cold acetonitrile with IS (200 nM imipramine, 200 nM labetalol and 2 μM ketoprofen). Samples were centrifuged at 3,220 g for 40 minutes. Aliquot of […] of the supernatant was mixed with 90 μL of ultra-pure H2O and then was used for LC-MS/MS analysis. Results are shown in Table 3 by indicating remaining % of the test compound after 60 minutes incubation with liver microsomes from human and mouse in the presence of NADPH.

[3] = Stability against mouse liver microsomes; format: in vitro ADME; conditions: for Liver microsome stability remaining % after 60 min incubation with NADPH, mouse LM: 2 μM compound
Protocol: as §1, §2, §3

A549 = experiment: Anti-proliferative activity, CellTiterGlo assay, A549; format: cell-based; conditions: Homo sapiens; A549, 96 hrs incubation; read-out: Antiproliferative activities IC50, A549
Protocol: (§4) The anti-proliferative activities of the compounds against 6 human cancer cell lines were determined by CellTiterGlo assay kit. All cells were obtained from ATCC and cultured as recommended by the vendor. Cells were assayed in exponential growth phase. Sample solution was prepared by 3-fold serial dilution from 30 mM stock for 10 doses in DMSO. Antiproliferative activities were measured by CellTiterGlo assay kit according to the protocol after cells were incubated for 96 hrs in a 37° C., 5% CO2 incubator.
(§5) On the 4th day of incubation, i) 15 μl reagent (CelltiterGlo assay kit) was added per well and plate was shaken (avoiding light) for 2 mins on a plate shaker, ii) the plate was kept (avoiding light) in room temperature for 30 min, and iii) the luminescence value was recorded by Multiplate reader.

HT29 = experiment: Anti-proliferative activity, CellTiterGlo assay, HT29; format: cell-based; conditions: Homo sapiens, HT-29; HT29, 96 hrs incubation; read-out: Antiproliferative activities IC50, HT29
Protocol: as §4, §5

BxPC-3 = experiment: Anti-proliferative activity, CellTiterGlo assay, BxPC-3; format: cell-based; conditions: Homo sapiens; BxPC-3, 96 hrs incubation; read-out: Antiproliferative activities IC50, BxPC-3
Protocol: as §4, §5

LNCaP = experiment: Anti-proliferative activity, CellTiterGlo assay, LNCaP; format: cell-based; conditions: Homo sapiens, 96 hrs incubation, read-out: Antiproliferative activities IC50, LNCaP
Protocol: as §4, §5

MDA-MB-231 = experiment: Anti-proliferative activity, CellTiterGlo assay, MDA-MB-231; format: cell-based; conditions: Homo sapiens; MDA-MB-231, 96 hrs incubation; read-out: Antiproliferative activities IC50, MDA-MB-231
Protocol: as §4, §5

U87-MG = experiment: Anti-proliferative activity, CellTiterGlo assay, U87-MG; format: cell-based; conditions: Homo sapiens, U-87 MG, 96 hrs incubation, read-out: Antiproliferative activities IC50, U87-MG
Protocol: as §4, §5

[4] = pH 4.0 phosphate buffer solution, read-out: Solubility, pH 4.0 PBS
[5] = pH 7.4 phosphate buffer solution, read-out: Solubility, pH 7.4 PBS

SMILES	Liver microsome stability remaining % after 60 min incubation with NADPH, human LM [2] [%]	Liver microsome stability remaining % after 60 min incubation with NADPH, mouse LM [3] [%]	also measured
CC(/C=C/[C@@]1(C)[C@H](C)CC/C(=N\OCC(=O)O)[C@@H]1C)=C\Cc1c(O)c(/C=N/O)c(C)c(Cl)c1OCF [Compound 27, 2-([[(1E,2R,3R,4R)-3-[(1E,3E)-5-[3-chloro-2-(fluoromethoxy)-6-hydroxy-5-[(1E)-(hydroxyimino)methyl]-4-methylphenyl]-3-methylpenta-1,3-dien-1-yl]-2,3,4-trimethylcyclohexylidene]amino]oxy)acetic Acid]	99	97	solubility at 2 h [1, 4]: 165 µM (≈ 86.6 µg/mL); solubility at 2 h [1, 5]: 315 µM (≈ 165 µg/mL)
CO/N=C/c1c(C)c(Cl)c(OC)c(C/C=C(C)/C=C/[C@@]2(C)[C@H](C)CC/C(=N\OC)[C@@H]2C)c1O [Compound 8, 4-chloro-3-methoxy-2-[(2E,4E)-5-[(1R,2R,3E,6R)-3-(methoxyimino)-1,2,6-trimethylcyclohexyl]-3-methylpenta-2,4-dien-1-yl]-6-[(1E)-(methoxyimino)methyl]-5-methylphenol]	100	89	
COc1c(Cl)c(C)c(/C=N/O)c(O)c1C/C=C(C)/C=C/[C@@]1(C)[C@H](C)CC/C(=N\O)[C@@H]1C [Compound 3, 4-chloro-2-[(2E,4E)-5-[(1R,2R,3E,6R)-3-(hydroxyimino)-1,2,6-trimethylcyclohexyl]-3-methylpenta-2,4-dien-1-yl]-6-[(1E)-(hydroxyimino)methyl]-3-methoxy-5-methylphenol]	74	58	
CO/N=C/c1c(C)c(Cl)c(OCF)c(C/C=C(C)/C=C/[C@@]2(C)[C@H](C)CC/C(=N\O)[C@@H]2C)c1O [Compound 11, 4-chloro-3-(fluoromethoxy)-2-[(2E,4E)-5-[(1R,2R,3E,6R)-3-(hydroxyimino)-1,2,6-trimethylcyclohexyl]-3-methylpenta-2,4-dien-1-yl]-6-[(1E)-(methoxyimino)methyl]-5-methylphenol]	81	56	
COc1c(Cl)c(C)c(C=O)c(O)c1C/C=C(C)/C=C/[C@@]1(C)[C@H](C)CCC(=O)[C@@H]1C [MAC, 3-chloro-6-hydroxy-4-methoxy-2-methyl-5-[(2E,4E)-3-methyl-5-[(1R,2R,6R)-1,2,6-trimethyl-3-oxocyclohexyl]penta-2,4-dien-1-yl]benzaldehyde, reference compound]	2	6	solubility at 2 h [1, 4]: < 0.08 µM; solubility at 2 h [1, 5]: 0.07 µM (≈ 0.0293 µg/mL); metabolic stability: % remained after 1 hr incubation ([3]; liver microsomes of human and mouse in the presence of NADPH, 1 hr): 6%
CCOC(=O)CO/N=C1\CC[C@@H](C)[C@](C)(/C=C/C(C)=C/Cc2c(O)c(/C=N/OC)c(C)c(Cl)c2OC)[C@H]1C [Compound 18, ethyl 2-([[(1E,2R,3R,4R)-3-[(1E,3E)-5-[3-chloro-6-hydroxy-2-methoxy-5-[(1E)-(methoxyimino)methyl]-4-methylphenyl]-3-methylpenta-1,3-dien-1-yl]-2,3,4-trimethylcyclohexylidene]amino]oxy)acetate]	86	59	
CO/N=C/c1c(C)c(Cl)c(OC)c(C/C=C(C)/C=C/[C@@]2(C)[C@H](C)CC/C(=N\OCCN3CCOCC3)[C@@H]2C)c1O [Compound 16, 4-chloro-3-methoxy-6-[(1E)-(methoxyimino)methyl]-5-methyl-2-[(2E,4E)-3-methyl-5-[(1R,2R,3E,6R)-1,2,6-trimethyl-3-[[2-(morpholin-4-yl)ethoxy]imino]cyclohexyl]penta-2,4-dien-1-yl]phenol]	56	76	
CO/N=C/c1c(C)c(Cl)c(OCF)c(C/C=C(C)/C=C/[C@@]2(C)[C@H](C)CC/C(=N\OC)[C@@H]2C)c1O [Compound 9, 4-chloro-3-(fluoromethoxy)-2-[(2E,4E)-5-[(1R,2R,3E,6R)-3-(methoxyimino)-1,2,6-trimethylcyclohexyl]-3-methylpenta-2,4-dien-1-yl]-6-[(1E)-(methoxyimino)methyl]-5-methylphenol]	100	83	
CO/N=C/c1c(C)c(Cl)c(OC)c(C/C=C(C)/C=C/[C@@]2(C)[C@H](C)CC/C(=N\O)[C@@H]2C)c1O [Compound 10, 4-chloro-2-[(2E,4E)-5-[(1R,2R,3E,6R)-3-(hydroxyimino)-1,2,6-trimethylcyclohexyl]-3-methylpenta-2,4-dien-1-yl]-3-methoxy-6-[(1E)-(methoxyimino)methyl]-5-methylphenol]	83	63	
CO/N=C/c1c(C)c(Cl)c(OC)c(C/C=C(C)/C=C/[C@@]2(C)[C@H](C)CCC(C)(O)[C@@H]2C)c1O (stereo partly drawn) [Compound 14, (E)-3-chloro-6-hydroxy-5-((2E,4E)-5-((1R,2R,6R)-3-hydroxy-1,2,3,6-tetramethylcyclohexyl)-3-methylpenta-2,4-dien-1-yl)-4-methoxy-2-methylbenzaldehyde O-methyl oxime]	99	88	
CC(/C=C/[C@@]1(C)[C@H](C)CC/C(=N\OCCN2CCOCC2)[C@@H]1C)=C\Cc1c(O)c(C=O)c(C)c(Cl)c1OCF [Compound 12, 3-chloro-4-(fluoromethoxy)-6-hydroxy-2-methyl-5-[(2E,4E)-3-methyl-5-[(1R,2R,3E,6R)-1,2,6-trimethyl-3-[[2-(morpholin-4-yl)ethoxy]imino]cyclohexyl]penta-2,4-dien-1-yl]benzaldehyde]			IC50 (A549): 2900 nM; IC50 (HT29): 2800 nM; IC50 (BxPC-3): 2300 nM; IC50 (LNCaP): 900 nM; IC50 (MDA-MB-231): 5800 nM; IC50 (U87-MG): 3600 nM
CC(/C=C/[C@@]1(C)[C@H](C)CC/C(=N\OCC(=O)O)[C@@H]1C)=C\Cc1c(O)c(C=O)c(C)c(Cl)c1OCF [Compound 26, 2-([[(1E,2R,3R,4R)-3-[(1E,3E)-5-[3-chloro-2-(fluoromethoxy)-5-formyl-6-hydroxy-4-methylphenyl]-3-methylpenta-1,3-dien-1-yl]-2,3,4-trimethylcyclohexylidene]amino]oxy)acetic Acid]			solubility at 2 h [1, 4]: 192 µM (≈ 97.9 µg/mL); solubility at 2 h [1, 5]: 12.3 µM (≈ 6.27 µg/mL)
CO/N=C/c1c(C)c(Cl)c(OC)c(C/C=C(C)/C=C/[C@@]2(C)[C@H](C)CCC(NC3CC3)[C@@H]2C)c1O (stereo partly drawn) [Compound 23, 4-chloro-2-[(2E,4E)-5-[(1R,2R,6R)-3-(cyclopropylamino)-1,2,6-trimethylcyclohexyl]-3-methylpenta-2,4-dien-1-yl]-3-methoxy-6-[(1E)-(methoxyimino)methyl]-5-methylphenol]	74	98	
CO/N=C/c1c(C)c(Cl)c(OC)c(C/C=C(C)/C=C/[C@@]2(C)[C@H](C)CCC(NC3COC3)[C@@H]2C)c1O (stereo partly drawn) [Compound 25, 4-chloro-3-methoxy-6-[(1E)-(methoxyimino)methyl]-5-methyl-2-[(2E,4E)-3-methyl-5-[(1R,2R,6R)-1,2,6-trimethyl-3-[(oxetan-3-yl)amino]cyclohexyl]penta-2,4-dien-1-yl]phenol]	66	39	
